Reference: article PMC9440176, “Novel benzylidene benzofuranone analogues as potential anticancer agents: design, synthesis and in vitro evaluation based on CDK2 inhibition assays” (3 Biotech, 2022)

How the values were obtained:
[1] = tested on: MCF-7; assay: MTT cytotoxicity assay on MCF-7; type: cell-based; settings: 24 h, read-out: Inhibition of cell proliferation, IC50, MCF-7
Procedure: The monolayer cell culture was trypsinized and the cell count was adjusted to 5.0 × 10^5 cells/ml using respective media containing 10% FBS. To each well of the 96-well microtiter plate, 100 µL of the diluted cell suspension (50,000cells/well) was added. After 24 h, when a partial monolayer was formed, the supernatant was flicked off, the monolayer was then washed once again with the medium and 100 µL of different test concentrations of test drugs were added on to the partial monolayer in microtiter plates. The plates were then incubated at 37 °C for 24 h in 5% CO2 atmosphere. After incubation, the test solutions in the wells were discarded and 100 µL of MTT (5 mg/10 ml of MTT in PBS) was added to each well. The plates were then incubated for 4 h at 37 °C in 5% CO2 atmosphere. The supernatant was then removed and 100 µL of DMSO was added and the plates were gently shaken to solubilize the formed formazan. The absorbance was measured using a microtiter plate reader at a wavelength of 590 nm. The percentage growth inhibition was thus calculated using the following formula and the concentration of the test drug required to inhibit the cell growth by 50% (IC50) values is generated from the dose–response curves for each one of the cell lines (Meerloo et al. [2011]).
The test compounds were screened for their in vitro cytotoxicity by MTT assay against two cancer cell lines, namely MCF-7, HCT-116 and normal epithelial kidney cells (Vero). Doxorubicin was used as a reference standard.

[2] = tested on: HCT116 cells; assay: Comet assay (DNA damage); type: cell-based, Human; settings: 24 h, HCT-116
Procedure: To assess the genotoxicity effect of newly synthesized aurones, comet assay was performed on HCT -116 cell lines.
The agarose-coated glass slides were prepared according to the standard procedure (Tice et al. [2000]).
Compound selected—NISOA4.
Cell line used were- HCT116 cells (Human colorectal cancer cell lines).
HCT -116 (1 × 10^6) cells were treated with two different concentrations, 12.5, 25 μM of NISOA4 for 24 h.
The cells were centrifuged at 2000 rpm at 4 °C for 5 min followed by washing with PBS. Further, it was air dried and pellet was dissolved once again in PBS.
After keeping slides at 4 °C for 2 h, slides were removed from the lysis buffer and were placed side by side on a horizontal gel box near one end, sliding them as close together as possible.
The slides were placed on ice for 10 min and submerged in lysis buffer (2.5% NaCl, 100 mM EDTA, 10 mM Tris, 10% DMSO and 1% Troton X-100) at pH 10 at 4 °C for more than 1 h.
In the next step, the buffer reservoir was filled with freshly made electrophoresis buffer (pH > 13) until the liquid level was enough to cover the slides. […]
Slides were stained with 80 µL 1× Ethidium Bromide and left aside for 10 min followed by washing with PBS to remove the excess of stain. The slides were then scored immediately after washing.
The visualization of DNA damage was observed based on EtBr-staining technique using a 40× objective on a fluorescent microscope. The assessment of both qualitative as well as quantitative extent of DNA damage in the cells were carried out by measuring the length of DNA migration and the percentage of the migrated DNA using ImageJ software with open comet plug-in. Generally, 50 to 100 randomly selected cells are analysed per sample. Finally, the total tail amount was calculated. The final results are assessed by using the following parameters: (i)amount of migration per cell (ii) the number of cells with increased migration (iii) the extent of migration among damaged cells and (iv) cell viability (Końca et al. [2003]).

## COc1ccc(/C=C2\Oc3c(c(OC)cc(OC)c3C3=CCN(C(C)C)CC3)C2=O)cc1OC [NISOA4]
[1]
  IC50: 35.6 µM
[2]; 12.5 µM
  Olive moments (Mean ± SD): 25.38
[2]; 12.5 µM, listed as NISOA04
  Olive moments (Mean ± SD): 25.384 ± 24.333
[2]; 25 µM, listed as NISOA04
  Olive moments (Mean ± SD): 73.582 ± 97.498
